Results as given in patent US9575054B2, “Identification of antitumor compounds using placenta” (Anthrogenesis Corporation, priority 2013, dated 2017).

Columns and labels:
Type in all cases: cell-based, human
[1] = tested on: MDA-MB231/Luciferase cells; assay: Luciferase activity (Xenogen IVIS) of MDA-MB231/Luciferase cells on DPVS; settings: TSA 100 ng/mL, 24 hours, cells on DPVS in 6-well plates; untreated 25.63×10^6
Description: Cells expressing luciferase were detected visually and quantitatively, using the Xenogen IVIS spectrum, by measuring Luciferase activity of the cells, which is indicative of cell number.
To examine the anti-cancer drug effect on cancer cells grown in DPVS, 1.5×10^5 MDA-MB231/Luciferase cells (a human breast cancer (adenocarcinoma) cell line that expresses luciferase; Cell Biolabs) were seeded onto DPVS in 6-well plates. One set of cells/DPVS was treated with Trichostatin A (TSA, 100 ng/mL) for 24 hours. Luciferase expression by the TSA-treated cells cultured on DPVS was compared with control cultures comprising cells/DPVS that were not treated with TSA. […] Thus, DPVS can be used to study the ability of cancer drugs, e.g., TSA, to affect cancer cell growth in a three-dimensional context.

[2] = tested on: MDA-MB231/Luc and CRL1803-TT (thyroid tissue carcinoma) cells; assay: MTS viable cell number of tumor cells in decellularized placental cotyledon (bioreactor); settings: TSA 100 ng/mL, 10 days in bioreactor, single cotyledon, FIG. 1A
Description: (§1) Trichostatin A (TSA, 100 ng/mL) was added to the growth medium (300 mL) and the cells were cultured for 10 days in a bioreactor. As a control, MDA-MB231/Luc and CRL1803-TT were infused into the vasculature of a single isolated cotyledon (3×10^6 cells/cotyledon) and cultured in growth medium only for 10 days in a bioreactor.
(§2) Culture medium was collected throughout the culture period and measured for Calcitonin levels by ELISA. In addition, at the end of the culture (day-10), the numbers of viable cells in both the TSA-treated and control cotyledons were determined by MTS assay.

HCT116 cells [3] = assay: MTS cell viability, HCT116 cells cultured in wells only; settings: HCT116 alone, 48 hours, control 100.00%
Description: (§3) Blocks of decellularized placental vascular scaffold (DPVS) in 24-well plates were seeded with HCT116 cells (1×10^5 cells/per well), a human colorectal cancer cell line. As a control, HCT116 cells were cultured in wells only, i.e., in the absence of DPVS. Trichostatin A (TSA), a drug contemplated for use in the treatment of cancer, was added to the DPVS/cells or cells alone at concentrations of 20 μM and 100 μM, or was not added at all (as a control). After 48 hours of culture, cell viability was measured by MTS assay. […] Thus, DPVS can be used a platform for assessing cancer cell killing by potential antitumor compounds.

[4] = tested on: MDA-MB231/Luciferase positive cells; assay: Luciferase expression (IVIS imaging) of MDA-MB231/Luciferase cells in placental cotyledon; settings: TSA 100 ng/mL, 4 days in bioreactor, single cotyledon
Description: MDA-MB231/Luciferase positive cells were infused into the vasculature of a single isolated cotyledon (40×10^6 cells/cotyledon). Trichostatin A (TSA, 100 ng/mL) was added to the growth medium (300 mL) and the cells were cultured for 4 days in a bioreactor. As a control, an equivalent number (40×10^6 cells/cotyledon) of MDA-MB231/Luc cells were infused into the vasculature of a single isolated cotyledon and cultured in growth medium only for 4 days in a bioreactor. After 4 days of culture, each cotyledon was transferred to growth medium comprising Luciferin (150 ng/mL) for 10 minutes. Both cotyledons then were analyzed using the IVIS imaging system.

[5] = tested on: MDA-MB231/Luc and CRL1803-TT (thyroid tissue carcinoma) cells; assay: Calcitonin ELISA of culture medium from tumor cells in placental cotyledon; settings: TSA 100 ng/mL, 10-day culture, single cotyledon, FIG. 1B
Description: as §1, §2

HCT116 cells [6] = assay: MTS cell viability, HCT116 cells seeded on decellularized placental vascular scaffold (DPVS); settings: 48 hours, control 100.00%
Description: as §3

## CC(/C=C/C(=O)NO)=C\[C@@H](C)C(=O)c1ccc(N(C)C)cc1 [TSA, Trichostatin A]
[1]
  luciferase signal: 8.22×10^6
[2]
  cell survival (viable cells by MTS) vs growth medium control: reduced cell survival
HCT116 cells [3]; TSA 20 uM
  Cell viability (% of untreated control): 11.21%
HCT116 cells [3]; TSA 100 uM
  Cell viability (% of untreated control): 10.36%
[4]
  luciferase expression vs cotyledon cultured in the absence of TSA: marked decrease in luciferase expression
[5]
  Calcitonin production by the cells: reduced
HCT116 cells [6]; TSA 20 uM
  Cell viability (% of untreated control): 97.00%
HCT116 cells [6]; TSA 100 uM
  Cell viability (% of untreated control): 73.32%
